We go through two molecules from patent publication US10624836B2, “Essential oil of achillea as anti-ageing agent” (L'OREAL, priority 2013, dated 2020).

For assay [1], the system named is epidermis of a Realskin™ reconstructed skin. Nature of the assay: Intra-tissue glutathione (GSH) level in reconstructed skin, LC/MS of GS-NEM. The class given is cell-based. The note with it: lipoic acid 250 μmol·l^−1; 16 h at 37° C.; positive control. On the procedure: For this, the GSH level was measured in the epidermis of a Realskin™ reconstructed skin which was: • nontreated (control), • treated with essential oil of Achillea at 0.01% by volume, or • treated with lipoic acid at 250 μmol·l^−1 (positive control).
The reconstructed tissue model kits are conditioned for transport on agar medium. Upon arrival, the tissues were reconditioned in a maintenance medium for a minimum of 16 h at 37° C. in a moisture-saturated atmosphere enriched with 5% CO2. The same medium was used for the incubations in the presence of the substrate.
The various solutions (2 ml) (of essential oil of Achillea at 0.01% by volume and of lipoic acid at […]) were deposited in the wells underneath the skins in order to diffuse through said skins more easily by capillary action. The tissues were then incubated in an incubator at 37° C. for 16 h.
The tissues were ground by means of a Potter grinder in […] of a solution of N-ethylmaleimide (NEM) at 2.5 mmol·l^−1 (excess of NEM). The Potter grinder was then washed with […] of ultrapure water, and 500 μl of 2% formic acid were added. The samples were then centrifuged for 15 minutes at 6000 rpm and at 4° C.
In order to assay the glutathione coupled to the NEM (GS-NEM), […] of the supernatant is diluted in 975 μl of 1% formic acid (1/40) in a 1 ml vial. […]

The subject of assay [2] is primary normal human keratinocytes. The experiment in a line: Collagen IV production by keratinocytes, in situ immunolabelling and image analysis. The class given is cell-based. As to conditions: TGF-β tested at 10 ng/ml; 72 hours at 37° C.; positive control. The method, then:
The keratinocytes were seeded into and cultured in culture medium for 24 hours.
The culture medium (2.5 ml) was then replaced: • either with test medium containing TGF-β (Transforming Growth Factor β) at 10 ng/ml (positive control), • or with test medium containing the essential oil of Example 1 at 0.003% by volume, • or with the same culture medium (control).
The cells were then incubated for 72 hours at 37° C.
The culture medium was removed and the cells were rinsed, fixed and permeabilized. They were then labelled with an Anti-Collagen IV primary antibody sold by Abcam (reference: Ab6586) directed against the protein of interest (collagen IV). This antibody was visualized with an Alexa Fluor® 488 Goat Anti-Rabbit IgG (H+L) secondary antibody sold by Invitrogen (reference: A11008) coupled to a fluorochrome (GAR-Alexa 488). In parallel, the nuclei of the cells were stained with Hoechst 33258 (bisbenzimide).
The image acquisition was carried out with an INCellAnalyzer™1000 (GE Healthcare) high-resolution imaging system. For each well, 5 digitized images were acquired.
The labellings were quantified by measuring the fluorescence intensity of the proteins relative to the number of nuclei identified by the Hoechst product (integration of the digital data using the Developer Toolbox 1.5 software, GE Healthcare).

As for `O=C(O)CCCC[C@@H]1CCSS1` (racemic) [lipoic acid], the “increase in the GSH level relative to the nontreated tissues” value in assay [1] is listed as 52.0+/−12.7%.

TGF-β: the “collagen IV production by the keratinocytes, relative to the control” value in assay [2] came to 594%.
